The experiment deals with Balb/c mice. The experiment in a line: Polypeptide chip-based vaccine immunogenicity scoring system. Format: in vivo. Set-up: key to A2: whether the 95 percentile of the last sampling is increased compared with the end point: Y = rise; N = no rise. The following applies: for Total single peptide: A*3 + B*2 + C*1; for A: 95 percentile grouping number score / B: Mouse performance score: total score = 5; for C1: #A timing-sequence response peptide fragment set / C2: #B vaccine specificity peptide fragment set / C3: Intersection of A and B / C4: Percentage of the intersection in set B / C: Timing-sequence response and specificity score: value of the whole mix. As to the method: Data distribution and characteristics thereof are analyzed based on a) and b), a polypeptide chip-based vaccine immunogenicity scoring system (referring to Table 7) is designed.
10 combinations are evaluated by the polypeptide chip-based vaccine immunogenicity scoring system. An evaluation method is consistent with that in Embodiment II. Evaluation results are show in the table below.
This embodiment is consistent with Embodiment II. Each combination is evaluated by the polypeptide chip-based vaccine immunogenicity scoring system. Evaluation results are show in the table below.

[1] abbreviates: Embodiment III, polypeptide-KLH.
Where [2] appears, read: Embodiment III, polypeptide-KLH, Mix1-10.

On to GTITVEELKK (SARS-CoV-2) [SEQ ID NO:39], for which, under setting [1], the “B1: D 0-D 14 95 percentile rise in the number of mice” value (“B1: D 0-D 14 95 percentile rise” below) amounted to 1, the “B2: D 0-D 21 95 percentile rise in the number of mice” value (“B2: D 0-D 21 95 percentile rise” for short) turned out to be 2, the “B3: D 14-D 21 95 percentile rise in the number of mice” value (from here on “B3: D 14-D 21 95 percentile rise”) amounted to 2 and the “B4: D 21-D 28 95 percentile rise in the number of mice” value (shortened to “B4: D 21-D 28 95 percentile rise”) is listed as 0. Under setting [1], the Total single peptide was 5.7, the “A: 95 percentile grouping number score” value is recorded as 1, the “B: Mouse performance score” value came out at 1.1 and the “C1: #A timing-sequence response peptide fragment set” value came out at 145. Under setting [1], the “C2: #B vaccine specificity peptide fragment set” value stood at 529; the “C3: Intersection of A and B” value is listed as 1; the “C4: Percentage of the intersection in set B” value (“C4: Percentage” below) is 0.189; the “C: Timing-sequence response and specificity score” value was 0.5. Under setting [2], the “A1: difference between a highest median and a D 0 median (95 percentile)” value turned out to be 0.03; the “A2: whether the 95 percentile of the last sampling is increased compared with the end point” value is “N”.
With GVYYPDKVFR (SARS-CoV-2) [SEQ ID NO:7], under “Embodiment II, Combination 2”, the “A2: whether the 95 percentile of the last sampling is increased compared with the end point” value is “N”, the “B1: D 0-D 14 95 percentile rise” value is recorded as 5, the “B2: D 0-D 21 95 percentile rise” value is listed as 0 and the “B3: D 14-D 21 95 percentile rise” value came out at 0. For the same sequence, for the setting “Embodiment II, Combination 2”, the “B4: D 21-D 28 95 percentile rise” value was found to be 1, the Total single peptide came to 18.9, the “A: 95 percentile grouping number score” value was 5 and the “B: Mouse performance score” value is reported as 1.7. Besides, the “A1: difference between a highest median and a D 0 median (95 percentile)” value (Embodiment II, mice immunized with Combination 2) is 0.4. For the same sequence, under setting [1], the “B1: D 0-D 14 95 percentile rise” value stood at 3, the “B2: D 0-D 21 95 percentile rise” value stood at 3, the “B3: D 14-D 21 95 percentile rise” value came to 0 and the “B4: D 21-D 28 95 percentile rise” value was found to be 0. For the same sequence, under setting [1], the Total single peptide is listed as 14, the “A: 95 percentile grouping number score” value worked out at 3.5, the “B: Mouse performance score” value is 1.5 and the “C1: #A timing-sequence response peptide fragment set” value is recorded as 145. For the same sequence, under setting [1], the “C2: #B vaccine specificity peptide fragment set” value is reported as 529; the “C3: Intersection of A and B” value came out at 1; the “C4: Percentage” value stood at 0.189; the “C: Timing-sequence response and specificity score” value was determined as 0.5. Moreover, under setting [2], the “A1: difference between a highest median and a D 0 median (95 percentile)” value is recorded as 0.09; the “A2: whether the 95 percentile of the last sampling is increased compared with the end point” value was “N”.
For the sequence HGKEDLKF (SARS-CoV-2) [SEQ ID NO:23], under setting [1], the “B1: D 0-D 14 95 percentile rise” value is given as 3, the “B2: D 0-D 21 95 percentile rise” value is given as 3, the “B3: D 14-D 21 95 percentile rise” value amounted to 0 and the “B4: D 21-D 28 95 percentile rise” value amounted to 1. Besides, under setting [1], the Total single peptide is given as 19.4, the “A: 95 percentile grouping number score” value is on record as 5, the “B: Mouse performance score” value is listed as 1.7 and the “C1: #A timing-sequence response peptide fragment set” value is listed as 1494. Also, under setting [1], the “C2: #B vaccine specificity peptide fragment set” value was 190; the “C3: Intersection of A and B” value was determined as 2; the “C4: Percentage” value worked out at 1.053; the “C: Timing-sequence response and specificity score” value is 1. Under setting [2], the “A1: difference between a highest median and a D 0 median (95 percentile)” value was 0.20; the “A2: whether the 95 percentile of the last sampling is increased compared with the end point” value is recorded as “N”.
IRGGDGKMKD (SARS-CoV-2) [SEQ ID NO:40]: under setting [1], the “B1: D 0-D 14 95 percentile rise” value is recorded as 3, the “B2: D 0-D 21 95 percentile rise” value came to 3, the “B3: D 14-D 21 95 percentile rise” value amounted to 2 and the “B4: D 21-D 28 95 percentile rise” value amounted to 0. Further, under setting [1], the Total single peptide is reported as 18.3, the “A: 95 percentile grouping number score” value is 4.5, the “B: Mouse performance score” value was determined as 1.9 and the “C1: #A timing-sequence response peptide fragment set” value is on record as 823. Besides, under setting [1], the “C2: #B vaccine specificity peptide fragment set” value is given as 398; the “C3: Intersection of A and B” value was 7; the “C4: Percentage” value stood at 1.759; the “C: Timing-sequence response and specificity score” value came to 1. Also, under setting [2], the “A1: difference between a highest median and a D 0 median (95 percentile)” value is recorded as 0.11; the “A2: whether the 95 percentile of the last sampling is increased compared with the end point” value is “N”.

The values are drawn from patent US20230136600A1, “Method and device for screening antigen epitope polypeptide” (priority 2020, published 2023).
